Reference: patent US20070134261A1, “Effectors of innate immunity” (priority 2001, published 2007)

System: THP-1 cells (human monocytes)
Assay: Induction of IL-8 in undifferentiated THP-1 cells
Type: cell-based
Description: The murine macrophage cell line RAW 264.7, THP-1 cells (human monocytes), a human epithelial cell line (A549), human bronchial epithelial cells (16HBEo14), and whole human blood were used. HBE cells were grown in MEM with Earle's. THP-1 cells were grown and maintained in RPMI 1640 medium. The RAW and A549 cell lines were maintained in DMEM supplemented with 10% fetal calf serum. […] DMEM was aspirated from cells grown overnight and replaced with fresh medium. After incubation of the cells with peptide, the release of chemokines into the culture supernatant was determined by ELISA (R&D Systems, Minneapolis, Minn.).

With `CC[C@H](C)[C@H](N)C(=O)N[C@@H](CC(C)C)C(=O)N1CCC[C@H]1C(=O)N[C@@H](Cc1c[nH]c2ccccc12)C(=O)N[C@@H](CCCCN)C(=O)N[C@@H](Cc1c[nH]c2ccccc12)C(=O)N1CCC[C@H]1C(=O)N[C@@H](Cc1c[nH]c2ccccc12)C(=O)N[C@@H](Cc1c[nH]c2ccccc12)C(=O)N1CCC[C@H]1C(=O)N[C@@H](Cc1c[nH]c2ccccc12)C(=O)N[C@@H](CCCNC(=N)N)C(=O)N[C@@H](CCCNC(=N)N)C(N)=O` [SEQ ID NO: 2] the “induction of IL-8” value was “significantly induced IL-8”.
